Assay results published in patent US8846909B2, “Bicyclic heteroaryl kinase inhibitors and methods of use” (University of Rochester, priority 2010, dated 2014).
Structures can show the parent of a compound that is named as a salt.

Biological target: T1, MLK3 (Homo sapiens, UniProt Q16584)
T1 construct: purchased Dundee DU8313
Experiment: Radiometric filter plate MLK3 assay; note: 2 µM cold ATP (Km)
Assay type: biochemical
Settings: read-out: MK3 IC50
Procedure: After a twenty minute incubation, the reactions were washed through filter plates and read on a scintillation counter. Results are shown in Table 10 below, in which +++ indicates ≦0.1 μM, ++ indicates >0.1 μM and ≦1 μM, and + indicates >1 μM.

T1 sequence (Q16584 whole entry): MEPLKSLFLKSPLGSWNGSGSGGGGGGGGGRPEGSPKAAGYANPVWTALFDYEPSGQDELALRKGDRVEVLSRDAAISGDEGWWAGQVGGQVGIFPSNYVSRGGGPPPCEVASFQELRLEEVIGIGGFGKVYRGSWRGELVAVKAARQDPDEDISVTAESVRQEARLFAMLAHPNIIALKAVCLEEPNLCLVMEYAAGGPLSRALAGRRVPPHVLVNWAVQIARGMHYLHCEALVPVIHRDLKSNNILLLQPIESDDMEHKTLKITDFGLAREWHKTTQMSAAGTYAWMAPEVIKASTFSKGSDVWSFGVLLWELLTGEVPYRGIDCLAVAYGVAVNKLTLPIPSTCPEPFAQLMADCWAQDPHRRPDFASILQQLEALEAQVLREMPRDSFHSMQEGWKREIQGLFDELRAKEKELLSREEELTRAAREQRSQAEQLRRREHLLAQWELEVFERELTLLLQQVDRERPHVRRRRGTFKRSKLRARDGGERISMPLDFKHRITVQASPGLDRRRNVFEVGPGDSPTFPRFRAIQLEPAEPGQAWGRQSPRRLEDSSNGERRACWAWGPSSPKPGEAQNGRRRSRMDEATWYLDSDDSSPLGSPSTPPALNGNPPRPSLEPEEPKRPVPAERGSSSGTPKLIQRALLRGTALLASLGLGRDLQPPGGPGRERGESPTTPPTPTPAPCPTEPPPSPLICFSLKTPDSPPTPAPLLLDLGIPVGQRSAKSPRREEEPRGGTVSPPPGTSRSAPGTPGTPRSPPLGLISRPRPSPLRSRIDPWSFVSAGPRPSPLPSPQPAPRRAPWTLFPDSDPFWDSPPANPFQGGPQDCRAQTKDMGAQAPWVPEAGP

IC50 [µM] | Structure (SMILES)
< 0.1 | COC(=O)N1CCN(Cc2ccc(-c3cnc4[nH]cc(-c5ccc6[nH]ccc6c5)c4c3)cc2)CC1 [Example 184]
> 1 | COc1cc(-c2cnc3ncn(-c4ccc5[nH]ccc5c4)c3n2)cc(OC)c1OC [Example 126, 1-(1H-indol-5-yl)-6-(3,4,5-trimethoxyphenyl)-1H-imidazo[4,5-b]pyrazine]
> 1 | O=c1[nH]c2ncc(-c3ccncc3)nc2n1-c1ccc2[nH]ncc2c1 [Example 88, 1-(1H-indazol-5-yl)-6-(pyridin-4-yl)-1H-imidazo[4,5-b]pyrazin-2(3H)-one]
> 1 | Cc1cc(C)cc(-c2cnc3[nH]c(=O)n(-c4ccc5[nH]ccc5c4)c3n2)c1 [Example 46, 6-(3,5-dimethylphenyl)-1-(1H-indol-5-yl)-1H-imidazo[4,5-b]pyrazin-2(3H)-one]
> 1 | COc1cc(-c2cnc3[nH]c(=S)n(CC4CC4)c3n2)cc(OC)c1OC [Example 127, 1-(cyclopropylmethyl)-6-(3,4,5-trimethoxyphenyl)-1H-imidazo[4,5-b]pyrazine-2(3H)-thione]
0.1 to 1 | CN1CCN(C(=O)c2ccc(-c3cnc4[nH]cc(-c5ccc6[nH]ccc6c5)c4c3)cc2)CC1 [Example 145, {4-[3-(1H-indol-5-yl)-1H-pyrrolo[2,3-b]pyridin-5-yl]-phenyl}-(4-methyl-piperazin-1-yl)-methanone]
< 0.1 | CN1CCN(Cc2ccc(-c3c[nH]c4ncc(-c5ccc(C(N)=O)cc5)cc34)cc2)CC1 [Example 162, 4-{3-[4-(4-methyl-piperazin-1-ylmethyl)-phenyl]-1H-pyrrolo[2,3-b]pyridin-5-yl}-benzamide]
> 1 | Cc1cc(C)cc(-c2cnc3[nH]c(=O)n(-c4ccc5c(ccn5C)c4)c3n2)c1 [Example 43, 6-(3,5-dimethylphenyl)-1-(1-methyl-1H-indol-5-yl)-1H-imidazo[4,5-b]pyrazin-2(3H)-one]
< 0.1 | O=C(CCO)N1CCN(Cc2ccc(-c3cnc4[nH]cc(-c5ccc6[nH]ccc6c5)c4c3)cc2)CC1 [Example 191]
< 0.1 | COCC(=O)N1CCN(Cc2ccc(-c3cnc4[nH]cc(-c5ccc6[nH]ccc6c5)c4c3)cc2)CC1 [Example 188]
< 0.1 | COc1cc(-c2cnc3[nH]c(=O)n(-c4ccc5[nH]ccc5c4)c3n2)ccc1N [Example 60, 6-(4-amino-3-methoxyphenyl)-1-(1H-indol-5-yl)-1H-imidazo[4,5-b]pyrazin-2(3H)-one]
> 1 | Nc1ccc(-c2cnc3[nH]c(=O)n(C4CCCC4)c3n2)cn1 [Example 117, 6-(6-aminopyridin-3-yl)-1-cyclopentyl-1H-imidazo[4,5-b]pyrazin-2(3H)-one]
< 0.1 | CN1CCN(Cc2ccc(-c3cnc4[nH]cc(-c5cnc6[nH]ccc6c5)c4c3)cc2)CC1 [Example 202]
> 1 | O=c1[nH]c2ncc(-c3ccc4cc[nH]c4c3)nc2n1-c1ccc2[nH]ccc2c1 [Example 56, 1-(1H-indol-5-yl)-6-(1H-indol-6-yl)-1H-imidazo[4,5-b]pyrazin-2(3H)-one]
> 1 | COc1cc(-c2cnc3[nH]c(=O)n(C4CCc5ccccc54)c3n2)cc(OC)c1OC (centres unmarked) [Example 101, 1-(2,3-dihydro-1H-inden-1-yl)-6-(3,4,5-trimethoxyphenyl)-1H-imidazo[4,5-b]pyrazin-2(3H)-one]
< 0.1 | COc1cc(-c2cnc3[nH]cc(-c4ccc5[nH]ccc5c4)c3c2)ccc1N [Example 5, 4-(3-(1H-indol-5-yl)-1H-pyrrolo[2,3-b]pyridin-5-yl)-2-methoxyaniline]
< 0.1 | CC(C)(C)OC(=O)N1CCN(C(=O)c2cccc(-c3cnc4[nH]cc(-c5ccc(C(N)=O)cc5)c4c3)c2)CC1 [Example 151, 4-{3-[3-(4-carbamoyl-phenyl)-1H-pyrrolo[2,3-b]pyridin-5-yl]-benzoyl}-piperazine-1-carboxylic acid tert-butyl ester]
> 1 | COc1ccc(-c2cnc3[nH]c(=O)n(-c4ccc5[nH]ncc5c4)c3n2)cc1OC [Example 87, 6-(3,4-dimethoxyphenyl)-1-(1H-indazol-5-yl)-1H-imidazo[4,5-b]pyrazin-2(3H)-one]
0.1 to 1 | COc1cc(-c2cc3c(-c4ccc(C(N)=O)cc4)c[nH]c3[n+]([O-])c2)cc(OC)c1OC [Example 154, 4-[7-oxy-5-(3,4,5-trimethoxy-phenyl)-1H-pyrrolo[2,3-b]pyridin-3-yl]benzamide]
< 0.1 | CCC(=O)N1CCN(Cc2ccc(-c3cnc4[nH]cc(-c5ccc6[nH]ccc6c5)c4c3)cc2)CC1 [Example 187]
< 0.1 | COc1cc(-c2cnc3[nH]c(=O)n(-c4cnc5[nH]ccc5c4)c3n2)cc(OC)c1OC [Example 112, 1-(1H-pyrrolo[2,3-b]pyridin-5-yl)-6-(3,4,5-trimethoxyphenyl)-1H-imidazo[4,5-b]pyrazin-2(3H)-one]
> 1 | CN1CCN(Cc2ccc(-c3cnc4[nH]cc(-c5ccc(F)cc5)c4c3)cc2)CC1 [Example 170]

IC50 [µM] | Structure (SMILES)
< 0.1 | NC(=O)c1ccc(-c2c[nH]c3ncc(-c4ccc(C(=O)N5CCNCC5)cc4)cc23)cc1 [Example 149, 4-{5-[4-(piperazine-1-carbonyl)-phenyl]-1H-pyrrolo[2,3-b]pyridin-3-yl}-benzamide, hydrochloride salt]
> 1 | O=c1[nH]c2ncc(-c3ccncc3)nc2n1-c1ccc2[nH]ccc2c1 [Example 44, 1-(1H-indol-5-yl)-6-(pyridin-4-yl)-1H-imidazo[4,5-b]pyrazin-2(3H)-one]
< 0.1 | COc1cc(-c2cnc3[nH]c(=O)n(-c4ccc5cc[nH]c5c4)c3n2)cc(OC)c1OC [Example 113, 1-(1H-indol-6-yl)-6-(3,4,5-trimethoxyphenyl)-1H-imidazo[4,5-b]pyrazin-2(3H)-one]
> 1 | COc1cc(-c2cnc3[nH]c(=O)n(-c4ccc(N5CCOCC5)nc4)c3n2)cc(OC)c1OC [Example 109, 1-(6-morpholinopyridin-3-yl)-6-(3,4,5-trimethoxyphenyl)-1H-imidazo[4,5-b]pyrazin-2(3H)-one]
< 0.1 | COc1cc(-c2cnc3[nH]c(=O)n(-c4ccc5[nH]ccc5c4)c3n2)ccc1OCCN1CCOCC1 [Example 57, 1-(1H-indol-5-yl)-6-(3-methoxy-4-(2-morpholinoethoxy)phenyl)-1H-imidazo[4,5-b]pyrazin-2(3H)-one]
< 0.1 | CC(C)CC(=O)N1CCN(Cc2ccc(-c3cnc4[nH]cc(-c5ccc6[nH]ccc6c5)c4c3)cc2)CC1 [Example 194]
< 0.1 | CC(C)(C)CC(=O)N1CCN(Cc2ccc(-c3cnc4[nH]cc(-c5ccc6[nH]ccc6c5)c4c3)cc2)CC1 [Example 182]
< 0.1 | COc1cc(-c2cnc3[nH]c(=O)n(C4Cc5ccccc5C4)c3n2)cc(OC)c1OC [Example 110, 1-(2,3-dihydro-1H-inden-2-yl)-6-(3,4,5-trimethoxyphenyl)-1H-imidazo[4,5-b]pyrazin-2(3H)-one]
< 0.1 | COc1cc(-c2cnc3[nH]c(=O)n(C4CCCC4)c3n2)cc(OC)c1OC [Example 74, 1-cyclopentyl-6-(3,4,5-trimethoxyphenyl)-1H-imidazo[4,5-b]pyrazin-2(3H)-one]
< 0.1 | c1cc2cc(-c3c[nH]c4ncc(-c5ccc(CN6CCOCC6)cc5)cc34)ccc2[nH]1 [Example 169, 4-(4-(3-(1H-indol-5-yl)-1H-pyrrolo[2,3-b]pyridin-5-yl)benzyl)morpholine]
< 0.1 | COCCC(=O)N1CCN(Cc2ccc(-c3cnc4[nH]cc(-c5ccc6[nH]ccc6c5)c4c3)cc2)CC1 [Example 192]
> 1 | Nc1ncc(-c2cnc3[nH]cc(-c4cnc(N)nc4)c3c2)cn1 [Example 20, 5,5′-(1H-pyrrolo[2,3-b]pyridine-3,5-diyl)dipyrimidin-2-amine]
< 0.1 | COc1ccc(-c2cnc3[nH]cc(-c4ccc(C(N)=O)cc4)c3c2)cc1OC [Example 26, 4-(5-(3,4-dimethoxyphenyl)-1H-pyrrolo[2,3-b]pyridin-3-yl)benzamide]
> 1 | COc1cc(-c2cnc3c(c2)C(=Cc2ccc(C#N)cc2)C(=O)N3)cc(OC)c1OC [Example 133, 4-[2-oxo-5-(3,4,5-trimethoxy-phenyl)-1,2-dihydro-pyrrolo[2,3-b]pyridin-3-ylidenemethyl]-benzonitrile]
< 0.1 | CNC(=O)c1ccc(-c2c[nH]c3ncc(-c4ccc(CN5CCN(C)CC5)cc4)cc23)cc1 [Example 165, N-methyl-4-{5-[4-(4-methyl-piperazin-1-ylmethyl)-phenyl]-1H-pyrrolo[2,3-b]pyridin-3-yl}-benzamide]
> 1 | CN1CCN(Cc2ccc(-c3cnc4[nH]cc(-c5ccc(C(F)(F)F)cc5)c4c3)cc2)CC1 [Example 171]
> 1 | Cc1cc(C)cc(-c2cnc3[nH]c(=O)n(-c4ccc5cn[nH]c5c4)c3n2)c1 [Example 95, 6-(3,5-dimethylphenyl)-1-(1H-indazol-6-yl)-1H-imidazo[4,5-b]pyrazin-2(3H)-one]
< 0.1 | c1cn(Cc2ccc(-c3cnc4[nH]cc(-c5ccc6[nH]ccc6c5)c4c3)cc2)cn1 [Example 199, 5-(4-((1H-imidazol-1-yl)methyl)phenyl)-3-(1H-indol-5-yl)-1H-pyrrolo[2,3-b]pyridine]
> 1 | O=c1[nH]c2ncc(-c3cc(Cl)cc(Cl)c3)nc2n1CC1CC1 [Example 80, 1-(cyclopropylmethyl)-6-(3,5-dichlorophenyl)-1H-imidazo[4,5-b]pyrazin-2(3H)-one]
< 0.1 | COc1cc(-c2cnc3[nH]c(=O)n(-c4ccc5[nH]c(C)cc5c4)c3n2)cc(OC)c1OC [Example 72, 1-(2-methyl-1H-indol-5-yl)-6-(3,4,5-trimethoxyphenyl)-1H-imidazo[4,5-b]pyrazin-2(3H)-one]
< 0.1 | CS(=O)(=O)Nc1ccc(-c2cnc3[nH]cc(-c4ccc5[nH]ccc5c4)c3c2)cc1 [Example 11, N-(4-(3-(1H-indol-5-yl)-1H-pyrrolo[2,3-b]pyridin-5-yl)phenyl)methanesulfonamide]
< 0.1 | COc1cc(-c2cnc3[nH]c(=O)n(-c4ccc5[nH]ccc5c4)c3n2)ccc1O [Example 55, 6-(4-hydroxy-3-methoxyphenyl)-1-(1H-indol-5-yl)-1H-imidazo[4,5-b]pyrazin-2(3H)-one]
